Measurements reported in the supplement of paper PMC8882468.
“And” between values parts separate entries of the source, which are not always exact repeats. Identical values can stand only once. ± gives the standard deviation of the averaged measurements.

Legend:
Assay in all cases: CTG-3D luminescence at 96 h relative to day-0 seeding control (ratio to day 0); higher = more growth / less cytotoxicity
HCI-011.E2 = test system: HCI-011.E2 (organoid from an ER-positive breast cancer xenograft)
Method: (§1)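 PDxO 3D drug screen (set 2), 8-point dose, 96 h; CTG-3D luminescence normalised to day-0 seeding control (mean of 4 wells each).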

HCI-023 = test system: HCI-023 (organoid from a triple-negative breast cancer xenograft)
Method: as §1

HCI-015 = test system: HCI-015 (organoid from a triple-negative breast cancer xenograft)
Method: as §1

HCI-027 = test system: HCI-027 (organoid from a triple-negative breast cancer xenograft)
Method: as §1

MDA-MB-231 = test system: MDA-MB-231
Method: as §1

HCI-017.E2 = test system: HCI-017.E2 (organoid from an ER-positive breast cancer xenograft)
Method: as §1

CC/C(=C(\c1ccc(O)cc1)c1ccc(OCCN(C)C)cc1)c1ccccc1 [4-hydroxytamoxifen]
CTG-3D luminescence at 96 h
Conditions | 12.5 pM | 0.00025 µM | 0.005 µM | 0.1 µM | 1 µM | 10 µM | 100 µM | 625 fM
HCI-011.E2 | 1.35 ± 0.045 | 1.71 ± 0.016 | 1.2 ± 0.19 | 1.83 ± 0.028 | 1.35 ± 0.27 | 1.72 ± 0.56 | 0.0138 ± 0.0032 | 1.77 ± 0.041
HCI-017.E2 | 2.22 ± 0.55 | 2.39 ± 0.3 | 2.07 ± 0.11 | 2.2 ± 0.46 | 1.83 ± 0.2 | 1.95 ± 0.45 | 0.0156 ± 0.00072 | 2.35 ± 0.15
MDA-MB-231 | 5.74 and 4.89 | 5.63 and 4.98 | 5.56 and 5.21 | 5.42 and 5.04 | 5.45 and 5.21 | 4.78 and 4.53 | 0.0254 and 0.0304 | 5.5 and 5.05

CTG-3D luminescence at 96 h
Conditions | 12.5 pM | 0.00025 µM | 0.005 µM | 0.1 µM | 1 µM | 10 µM | 100 µM | 625 fM
HCI-011.E2, days in culture: 74 | 2.1 | 1.95 | 2.01 | 2.04 | 1.63 | 1.31 | -0.00194 | 2.23
HCI-015, days in culture: 333 | 1.04 | 1.94 | 1.26 | 1.29 | 1.39 | 0.469 | 0.0144 | 2.19
HCI-015, days in culture: 355 | 3.76 | 3.54 | 1.5 | 2.75 | 0.935 | 1.57 | 0.00605 | 1.84
HCI-015, days in culture: 369 | 2.01 | 1.59 | 2.11 | 1.32 | 1.19 | 0.943 | 0.00584 | 1.66
HCI-017.E2, days in culture: 85 | 2.08 | 1.78 | 1.81 | 2.09 | 1.49 | 1.08 | 0.0372 | 2.06
HCI-023, days in culture: 223 | 2.56 | 1.54 | 1.73 | 1.73 | 1.16 | 1.64 | 0.0104 | 2.1
HCI-023, days in culture: 238 | 1.29 | 1.34 | 1.35 | 1.29 | 1.4 | 1.46 | 0.00895 | 1.43
HCI-023, days in culture: 252 | 2.34 | 1.72 | 1.66 | 1.88 | 1.73 | 1.63 | 0.00241 | 1.66
HCI-027, days in culture: 145 | 1.3 | 2.12 | 1.24 | 1.83 | 1.18 | 0.699 | 0.00408 | 1.73
HCI-027, days in culture: 158 | 2.04 | 2.76 | 2.17 | 2.08 | 1.97 | 1.36 | 0.00947 | 4.26
HCI-027, days in culture: 164 | 1.94 | 2.01 | 1.46 | 2.16 | 1.19 | 1.86 | 0.0151 | 1.7
HCI-027, days in culture: 176 | 3.64 | 3.33 | 1.45 | 1.08 | 2.78 | 0.382 | 0.00762 | 2.5
HCI-027, days in culture: 186 | 1.39 | 2.63 | 2.25 | 1.45 | 0.447 | 0.154 | 0.0028 | 2.27
